Results on 19 molecules are retold here after US5648369A, “Aminoalkylpyridine compounds which are useful as anitconvulsant drugs, excitatory amino acid inhibitors and NMDA sigma receptor antagonists” (priority 1991, dated 1997).

The subject of one data set is MES and scMet seizures. The data set is described as follows: Anticonvulsant screening, ASP classification (MES and scMet tests) in mice, i.p. It is filed as in vivo, mouse. Particulars: for minimal effective dose: ip, i.p. mouse, read-out: ASP Group Classification; for ASP classification (Table 8): Table 8 comparison, titled MES Test, Rat, p.o.
The next data set deals with MK-801. The data set is described as follows: Radioligand binding, MK-801, [3H]MK-801. The source says:
(§1) EAAs are known to play important roles in excitatory neurotransmission in partial seizures as discussed earlier. […] Thus, several aminoalkylpyridines of this invention are effective antagonists of NMDA-receptor mediated EAA neurotransmission and function as noncompetitive NMDA antagonists and thus can be used to advantage in epilepsy, stroke and Alzheimer's disease.
(§2) EAAs are known to play important roles in excitatory transmission in partial seizures as discussed earlier. In general, antieptileptic drugs effective against MES seizures alter ionic transport across excitable membranes [Porter, R. J., and Pitlick, W. H., In "Basic and Clinical Pharmacology", 4th Edn., B. G. Katzung, Ed., Appleton and Lange, CA 1989, pp. 287-303]. Based on this rationale, the aminoalkylpyridines may be expected to attenuate EAA neurotransmission. Indeed, evaluation of potential displacement activity of #2 at all inhibitory and excitatory amino acid receptor types and subtypes using appropriate radioligands, indicate that this aminoalkylpyridine inhibits at 10 μM concentration, 49% of the binding of [^3 H]DTG, a ligand highly specific for the σ (sigma) receptor population of the PCP receptors on the NMDA receptor-ionophore complex (Table 6).
(§3) Values are expressed as the percent inhibition of specific binding and […]

The next data set has as its system PCF. Nature of the data set: Radioligand binding, PCP, [3H]TCP.
From the text: as §1, §2, §3

Another data set relates to Sigma. Nature of the data set: Radioligand binding, Sigma, [3H]DTG. The note with it: σ receptor population. The source says:
EAAs are known to play important roles in excitatory neurotransmission in partial seizures as discussed earlier.
EAAs are known to play important roles in excitatory transmission in partial seizures as discussed earlier.

The nature of data set [1]: Rotorod ataxia test (neurotoxicity), mice, i.p. The note with it: mouse, in vivo, ip. The procedure:
Neurotoxicity is evaluated in mice by the rotorod ataxia test. The animal is placed on a wooden rod of 11/8" diameter rotating at 6 rpm. Normal mice can remain on a rod rotating at this speed indefinitely.
In general terms: Falling from the rotarod earlier than controls is read as motor impairment.

The test system of data set [2] is maximal electroshock seizures. Nature of the data set: Maximal electroshock seizure (MES) test in the rat, p.o. The note with it: for responders at 50 mg/kg / ED50: Rattus norvegicus, po; for responders at 50 mg/kg: read-out: Percent protection at 50 mg/kg dose, p.o., in the MES Test in the rat; for ED50: read-out: ED50 MES.
From the text: (§5) The Maximal Electroshock Seizure Test (MES): Maximal electroshock seizures are elicited with a 60 Hz alternating current of 50 mA intensity in mice and about 150 mA in rats (5-7 times that necessary to elicit minimal electroshock seizures), delivered for 0.2 sec via corneal electrodes. A drop of 0.9% saline is instilled in the eye prior to application of the electrodes in order to prevent the death of the animal. Abolition of the hind limb tonic extension component of the seizure is defined as protection and results are expressed as number of animals protected/number of animals tested.
This species will be subject of the complete anticonvulsant quantification test evaluation as described above, but after oral (gavage) administration of the candidate compound.
Neurological deficit in rats is examined by the positional sense test and gait and stance test. […] Inability to do so rapidly indicates a neurologic deficit. In the gait and stance test, a neurologic deficit is indicated by a circular or zigzag gait, ataxia, abnormal spread of the legs, abnormal body posture, tremor, hyperactivity, lack of exploratory behavior, somnolence, stupor, or catalepsy.
The test system of data set [3] is subcutaneous pentylenetetrazol seizures. Nature of the data set: Subcutaneous pentylenetetrazol (Metrazole) seizure threshold test (scMet), mice, i.p. It is filed as in vivo. The note with it: Mus musculus, ip. The procedure: (§4) The Subcutaneous Pentylenetetrazol (Metrazole) Seizure Threshold Test (scMet): A 0.5% solution of 85 mg/kg of pentylenetetrazol is administered subcutaneously in the posterior midline. The animal is observed for 30 minutes.

Data set [4] relates to maximal electroshock seizures. Nature of the data set: Maximal electroshock seizure (MES) test, anticonvulsant quantification in mice, i.p. Particulars: for ED50: Mus musculus, ip, read-out: ED50 MES; for P.I. MES (TD50/ED50): mice.
Protocol: Screening Methodology to Determine Anticonvulsant Activity: In mice, i.p.: All compounds are solubilized in 0.5% methylcellulose. […] The compounds are administered intraperitoneally in a volume of 0.01 ml/gm to male Carworth Farms #1 mice weighing about 20 gm. All compounds are tested at least at three dose levels (30, 100 an 300 mg/kg) at 30 minutes and 4 hours after their administration.
as §5
Anticonvulsant Quantification in Mice, i.p.: The ED50 values are determined in the MES, scMet and rotorod ataxia test.
The subject of data set [5] is endogenous L-glutamate release. Nature of the data set: Ca2+ dependent, K+ evoked release of endogenous L-glutamate in cerebrocortical slices. It is filed as cell-based, guinea pig. Particulars: Cavia porcellus, means ± SEM, n = 4.
A further data set in a line: in vivo. Set-up: species or system rat (Sprague-Dawley). The note with it: rat, po. The source says:
Inability to do so rapidly indicates a neurologic deficit.

Data set [6] has as its system subcutaneous pentylenetetrazol seizures. Nature of the data set: Subcutaneous pentylenetetrazol seizure threshold test (scMet), rat, p.o. It is filed as in vivo, rat (Sprague-Dawley). The note with it: po. The procedure: as §4

Molecules are shown by their SMILES.

On to `Cc1ccc(NCc2ccncc2)cc1` [Compound 15, 1-(4-Methylanilino)-1-(4-pyridyl)-methan], for which, in the data set on MES and scMet seizures, the minimal effective dose is under 100 mg/kg.

In the case of `Cc1ccc(NC(C)c2ccncc2)cc1` (stereo not drawn) [Compound 6, 1-(4-Methylanilino)-1-(4-pyridyl)-ethan], in the data set on MK-801, the “activity at the [3H]MK-801-binding receptor sites (in words)” value is recorded as “no activity”. In the data set on MES and scMet seizures, the “ASP classification (Table 8)” value is given as “I (They demonstrate anticonvulsant activity in either the MES test or the scMet test, or both at doses of 100 mg/kg or 30 mg/kg without signs of neurological deficit)” and the minimal effective dose was under 100 mg/kg. For the same molecule, in the data set with PCF, the “activity at the [3H]TCP-binding receptor sites / PCP receptors (in words)” value is given as “no activity”. In the data set on Sigma, the “inhibition of the binding of [3H]DTG (in words)” value (“inhibition” below) is “inhibit selectively”.

The term ED50 denotes the dose that gives a 50% effect, or the effect in half of the subjects. Regarding `CC(Nc1cccc(Cl)c1)c1ccncc1` (stereo not drawn) [Compound 3, 1-(3-Chloroanilino)-1-(4-pyridyl)-ethan], the “activity at the [3H]MK-801-binding receptor sites (in words)” value with MK-801 was “no activity”. The TD50 in data set [1] was over 500 mg/kg. In addition, the minimal effective dose with MES and scMet seizures is under 100 mg/kg. The responders at 50 mg/kg in data set [2] lay in the range of 50 to 75%. For the same molecule, the 50% effective dose (ED50) in [3] is over 250 mg/kg; in data set [4] it was 95.5 mg/kg. Besides, in the data set with PCF, the “activity at the [3H]TCP-binding receptor sites / PCP receptors (in words)” value was “no activity”. For the same molecule, the “inhibition” value in the data set with Sigma was “inhibit selectively”. In addition, the “P.I. MES (TD50/ED50)” value in data set [4] is listed as over 5.24.

`CC(Nc1ccc(Cl)c(Cl)c1)c1ccncc1` (stereo not drawn) [Compound 1, 1-(3,4-Dicloroanilino)-1-(4-pyridyl)-ethan]: in the data set on MK-801, the “activity at the [3H]MK-801-binding receptor sites (in words)” value was “no activity”. In the data set with MES and scMet seizures, the minimal effective dose was under 100 mg/kg. Also, the “activity at the [3H]TCP-binding receptor sites / PCP receptors (in words)” value in the data set with PCF is on record as “no activity”. In addition, the “inhibition” value in the data set on Sigma is listed as “inhibit selectively”.

Turning to `Fc1ccc(NCc2ccncc2)cc1` [Compound 14], in the data set on MES and scMet seizures, the minimal effective dose is under 100 mg/kg. Besides, in data set [2], the responders at 50 mg/kg was found to be 25%.

Consider `Clc1ccc(N2N=NCC2c2ccncc2)cc1` (stereo not drawn) [ADD17014, reference compound], for which the activity at 50 µM was 136 ± 6% in data set [5] (50 μM (K+), 30 mM K+, P < 0.001 vs K+ alone) and 101 ± 9% in data set [5] (50 μM (basal)). Besides, the activity at 100 µM in data set [5] (100 μM (K+), 30 mM K+, P < 0.001 vs K+ alone) was 122 ± 5%; in data set [5] (100 μM (basal)), 109 ± 4%.

Turning to `Clc1cccc(NCc2ccncc2)c1` [Compound 12, 1-(3-Chloroanilino)-1-(4-pyridyl)-methan], the “activity at the [3H]MK-801-binding receptor sites (in words)” value in the data set on MK-801 is listed as “no activity”. Also, the minimal effective dose with MES and scMet seizures was under 100 mg/kg. Moreover, the responders at 50 mg/kg in [2] is over 50%. Also, the “activity at the [3H]TCP-binding receptor sites / PCP receptors (in words)” value in the data set on PCF is recorded as “no activity”. Besides, the “inhibition” value in the data set with Sigma was “inhibit selectively”.

As to `Brc1ccc(NCc2ccncc2)cc1` [Compound 13, 1-(4-Bromoanilino)-1-(4-pyridyl)-methan], in the data set on MK-801, the “activity at the [3H]MK-801-binding receptor sites (in words)” value was “no activity”. Also, the minimal effective dose with MES and scMet seizures is under 100 mg/kg. In data set [2], the responders at 50 mg/kg was over 50%. The “activity at the [3H]TCP-binding receptor sites / PCP receptors (in words)” value in the data set on PCF was “no activity”. Also, in the data set on Sigma, the “inhibition” value is on record as “inhibit selectively”.

Consider `COc1ccc(NC(C)c2ccncc2)cc1` (stereo not drawn) [Compound 7, 1-(4-Methoxyanilino)-1-(4-pyridyl)-ethan], for which, in the data set with MES and scMet seizures, the “ASP classification (Table 8)” value is listed as “I (They demonstrate anticonvulsant activity in either the MES test or the scMet test, or both at doses of 100 mg/kg or 30 mg/kg without signs of neurological deficit)” and the minimal effective dose is under 100 mg/kg. The “protection at 50 mg/kg (Table 8)” value in data set [2] (50 mg/kg, rat, p.o., MES) is recorded as 25-50%. The responders at 50 mg/kg in [2] fell in the range of 25 to 50%.

Consider `Cc1ccc(N2N=NCC2c2ccncc2)cc1` (stereo not drawn) [4-CH3, reference compound], for which, in the data set on MES and scMet seizures, the “ASP classification (Table 8)” value is recorded as “II (Class II compounds show anticonvulsant activity at doses greater than 100 mg/kg or show activity at 100 mg/kg which is not reinforced by similar activity at 300 mg/kg)”.

As for `CC(Nc1ccc(F)cc1)c1ccncc1` (stereo not drawn) [Compound 5, 1-(4-Fluoroanilino)-1-(4-pyridyl)-ethan], the “activity at the [3H]MK-801-binding receptor sites (in words)” value with MK-801 was “no activity”. For the same molecule, the TD50 was 141 mg/kg in [1] and over 500 mg/kg in “in vivo”. Moreover, the minimal effective dose in the data set with MES and scMet seizures was under 100 mg/kg. In addition, the ED50 was 81.1 mg/kg in data set [2], over 80 mg/kg in data set [3], 57.4 mg/kg in [4] and over 250 mg/kg in data set [6]. Also, in [2], the responders at 50 mg/kg lay within 75 to 100%. For the same molecule, the “P.I. MES (TD50/ED50)” value in data set [2] (rat, p.o.) is listed as over 6.17; in data set [4], 2.46. In addition, the “activity at the [3H]TCP-binding receptor sites / PCP receptors (in words)” value with PCF is “no activity”. In addition, the “inhibition” value with Sigma is “inhibit selectively”.

As usually defined, the Ki is a measure of affinity in units of concentration, obtained from inhibition or displacement. `c1ccc(C2(N3CCCCC3)CCCCC2)cc1` [PCP, phencyclidine, reference compound]: the Ki on PCF (reference compound, [3H]TCP) stood at 62.3 nM.

As to `CC(Nc1ccccc1)c1ccncc1` (stereo not drawn) [Compound 8, 1-(Anilino)-1-(4-pyridyl)-ethan], the “activity at the [3H]MK-801-binding receptor sites (in words)” value in the data set with MK-801 was “no activity”. The TD50 in data set [1] is 161 mg/kg; in the data set “in vivo”, over 500 mg/kg. Moreover, the minimal effective dose with MES and scMet seizures was under 100 mg/kg. The median effective dose (ED50) was 48.4 mg/kg in data set [2], under 300 mg/kg in [3], 81.7 mg/kg in data set [4] and over 250 mg/kg in data set [6]. In addition, the responders at 50 mg/kg in [2] fell in the range of 50 to 75%. The “P.I. MES (TD50/ED50)” value in data set [2] (rat, p.o.) was over 10.33; in data set [4], 1.97. Moreover, the “activity at the [3H]TCP-binding receptor sites / PCP receptors (in words)” value with PCF is reported as “no activity”. The “inhibition” value with Sigma is “inhibit selectively”.

Turning to `C[C@]12N[C@H](Cc3ccccc31)c1ccccc12` [MK-801, reference compound], on MK-801 (reference compound, [3H]MK-801), affinity was put at a Ki of 4.3 nM. That is a single-digit nanomolar value.

Turning to `c1ccc(N2N=NCC2c2ccncc2)cc1` (stereo not drawn) [H, reference compound], the “ASP classification (Table 8)” value with MES and scMet seizures was “II (Class II compounds show anticonvulsant activity at doses greater than 100 mg/kg or show activity at 100 mg/kg which is not reinforced by similar activity at 300 mg/kg)”.

On to `COc1ccc(NCc2ccncc2)cc1` [Compound 16, 1-(4-Methoxyanilino)-1-(4-pyridyl)-methan], for which the minimal effective dose in the data set with MES and scMet seizures was under 100 mg/kg.

On to `COc1ccc(N2N=NCC2c2ccncc2)cc1` (stereo not drawn) [4-OCH3, reference compound], for which, in the data set on MES and scMet seizures, the “ASP classification (Table 8)” value was “III (Those failing to demonstrate anticonvulsant activity at doses up to 300 mg/kg are considered inactive)”.

For the molecule `Clc1ccc(NCc2ccncc2)cc1Cl` [Compound 10, 1-(3,4-Dichloroanilino)-1-(4-pyridyl)-methan], in the data set with MK-801, the “activity at the [3H]MK-801-binding receptor sites (in words)” value is listed as “no activity”. In addition, the minimal effective dose in the data set on MES and scMet seizures was under 100 mg/kg. In [2], the responders at 50 mg/kg stood at 50%. Moreover, the “activity at the [3H]TCP-binding receptor sites / PCP receptors (in words)” value in the data set on PCF is recorded as “no activity”. Also, the “inhibition” value with Sigma is listed as “inhibit selectively”.

Take `CC(Nc1ccc(Cl)cc1)c1cccnc1` (stereo not drawn) [Compound 9, 1-(4-Chloroanilino)-1-(3-pyridyl)-ethan]: the “activity at the [3H]MK-801-binding receptor sites (in words)” value in the data set with MK-801 is listed as “no activity”. Moreover, the minimal effective dose in the data set with MES and scMet seizures was under 100 mg/kg. Also, in [2], the responders at 50 mg/kg is 25 to 75%. Further, the “activity at the [3H]TCP-binding receptor sites / PCP receptors (in words)” value with PCF was “no activity”. Also, the “inhibition” value in the data set with Sigma is recorded as “inhibit selectively”.
